Measurements: patent US11040026B2, “Muscarinic M1 receptor positive allosteric modulators” (SUVEN LIFE SCIENCES LIMITED, priority 2016, dated 2021)

What was measured:
[1] = test system: Male Wistar rats; test: Object recognition task model; assay type: in vivo; conditions: rat, 3 mg/kg, p.o.
Description: Object Recognition Task Model
(§1) Male Wistar rats (8-10 weeks old) were used as experimental animals. Four animals were housed in each cage. Animals were kept on 20% food deprivation from a day prior to experimentation. Water was provided ad libitum throughout the experiment. Animals were maintained on a 12 hours light/dark cycle in temperature and humidity controlled room. The experiment was carried out in an circular or square arena made up of acrylic. Rats were habituated to individual arenas for up to 1 hour in the absence of any objects on day 1.
One group of 12 rats received vehicle and another set of animals received test compounds, before familiar (T1) and choice (T2) trials. During the familiarization phase, (T1), the rats were placed individually in the arena for 3 minutes, in which two identical objects (a1 and a2) were positioned 10 cm from the wall. 24 hours after T1, trial for long-term memory test was performed. The same rats were placed in the same arena as they were placed in T1 trial. During the choice phase (T2) rats were allowed to explore the arena for 3 minutes in presence of a copy of familiar object (a3) and one novel object (b). During the T1 and T2 trial, explorations of each object (defined as sniffing, licking, chewing or having moving vibrissae whilst directing the nose towards the object at a distance of less than 1 cm) were recorded using stopwatch.
T1 is the total time spent exploring the familiar objects (a1+a2).
T2 is the total time spent exploring the familiar object and novel object (a3+b).
The object recognition test was performed as described in Behav. Brain Res., 1988, 31, 47-59.

[2] = Rodent pharmacokinetic study; assay type: in vivo, Male Wistar rats; conditions: rat
Description: Rodent Pharmacokinetic Study
Male Wistar rats (260±50 grams) were used as experimental animals. Animals were housed individually in polypropylene cage. Two days prior to study, male Wistar rats were anesthetized with isoflurane for surgical placement of jugular vein catheter. Rats were randomly divided for oral (3 mg/kg) and intravenous (1 mg/kg) dosing (n=3/group) and fasted overnight before oral dosing (p.o.). However, rats allocated to intravenous dosing food and water was provided ad libitum.
At pre-determined point, blood was collected through jugular vein and replenished with an equivalent volume of normal saline. Collected blood was transferred into a labeled eppendorf tube containing 10 μL of heparin as an anticoagulant. Typically blood samples were collected at following time points: 0.08, 0.25, 0.5, 1, 2, 4, 6, 8, and 24 hours post dose. Blood was centrifuged at 4000 rpm for 10 minutes. Plasma was separated and stored frozen at −80° C. until analysis. The concentrations of the test compounds were quantified in plasma by qualified LC-MS/MS method using suitable extraction technique. The test compounds were quantified in the calibration range around 1-1000 ng/mL in plasma. Study samples were analyzed using calibration samples in the batch and quality control samples spread across the batch.
Pharmacokinetic parameters Cmax, AUCt, T1/2, Clearance and Bioavailability (F) were calculated by non-compartmental model using standard non-compartmental model by using Phoenix WinNonlin 6.0.4 version Software package.

[3] = Rodent brain penetration study; assay type: in vivo, Male Wistar rats; conditions: male, Wistar, brain and plasma, po; rat, 3 mg/kg, p.o., brain-plasma ratio; read-out: Single dose Rat Brain Penetration (Cb/Cp) at 3 mg/kg, p.o.
Description: Rodent Brain Penetration Study
Male Wistar rats (260±40 grams) were used as experimental animals. Three animals were housed in each cage. Animals were given water and food ad libitum throughout the experiment and maintained on a 12 hours light/dark cycle.
Brain penetration was determined in discrete manner in rats. One day prior to dosing day, male Wistar rats were acclimatized and randomly grouped according to their weight. At each time point (0.50, 1 and 2 hours) n=3 animals were used.
The test compounds were suitably preformulated and administered orally at (free base equivalent) 3 mg/kg. Blood samples were removed via cardiac puncture by using isoflurane anesthesia. The animals were sacrificed to collect brain tissue. Plasma was separated and brain samples were homogenized and stored frozen at −20° C. until analysis. The concentrations of the test compounds in plasma and brain were determined using LC-MS/MS method.
The test compounds were quantified in plasma and brain homogenate by qualified LC-MS/MS method using suitable extraction technique. The test compounds were quantified in the calibration range of 1-500 ng/mL in plasma and brain homogenate. Study samples were analyzed using calibration samples in the batch and quality control samples spread across the batch. Extent of brain-plasma ratio (Cb/Cp) was calculated

[4] = target: T1, muscarinic M1 receptor (Homo sapiens, UniProt P11229); test: Allosteric potency EC50 for muscarinic M1 receptor (CHO pCRE-Luc reporter assay); assay type: cell-based; conditions: in presence of EC20 of acetylcholine; CHO cells, luciferase reporter, 4 hours
T1 sequence (P11229 1-460): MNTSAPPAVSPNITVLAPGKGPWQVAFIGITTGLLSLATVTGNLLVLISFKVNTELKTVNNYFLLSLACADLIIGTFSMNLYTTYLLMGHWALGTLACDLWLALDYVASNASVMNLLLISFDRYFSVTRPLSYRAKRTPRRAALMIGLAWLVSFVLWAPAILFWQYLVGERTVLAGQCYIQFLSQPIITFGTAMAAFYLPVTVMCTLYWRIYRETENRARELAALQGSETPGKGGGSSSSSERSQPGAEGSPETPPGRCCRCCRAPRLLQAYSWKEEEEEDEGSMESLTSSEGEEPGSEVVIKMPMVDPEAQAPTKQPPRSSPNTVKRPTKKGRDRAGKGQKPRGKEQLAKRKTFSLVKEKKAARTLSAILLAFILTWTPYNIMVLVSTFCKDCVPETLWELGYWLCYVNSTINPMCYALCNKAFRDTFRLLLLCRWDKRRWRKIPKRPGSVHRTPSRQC
Method in brief: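 Stable CHO line with recombinant human M1 and cAMP-response-element luciferase reporter, serum-starved overnight. Test compounds at increasing concentrations added with an EC20 of acetylcholine, 4 h at 37 °C; luminescence read after lysis. EC50 = concentration giving 50% stimulation of luciferase activity in the presence of EC20 acetylcholine.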

[5] = test system: Male Wistar rats; test: Object recognition task model (combination study); assay type: in vivo; conditions: rat, combination (co-treatment) with donepezil; FIG. 1
Description: Object Recognition Task Model (Combination Study)
The cognition enhancing properties of compounds of this invention were estimated by using this model.
as §1, with “open field” for “circular or square arena”, “arenas (open field)” for “arenas”, “20 minutes” for “up to 1 hour”
One group of 12 rats received vehicle and another set of animals received compound of the formula (I) or Donepezil or compound of formula (I) and Donepezil, before the familiar (T1) and choice (T2) trials. During the familiarization phase, (T1), the rats were placed individually in the arena for 3 minutes, in which two identical objects (a1 and a2) were positioned 10 cm from the wall. 24 hours after T1, trial for long-term memory test was performed. […] During the T1 and T2 trial, explorations of each object (defined as sniffing, licking, chewing or having moving vibrissae whilst directing the nose towards the object at a distance of less than 1 cm) were recorded using stopwatch. […]

[6] = cited from earlier work
[7] = target: T1, muscarinic M1 receptor; conditions: literature report; cited from earlier work
[8] = male, Wistar, plasma, intravenous (bolus), 1 mg/kg
[9] = male, Wistar, plasma, oral (gavage), 3 mg/kg

**Q.** Which results are given for Cn1ccc2c(Cc3ccnc(F)c3)cc(C(=O)N[C@H]3CCCC[C@@H]3O)nc21 [Example 1, N-[(1S,2S)-2-Hydroxycyclohexyl]-4-(2-fluoropyridin-4-ylmethyl)-1-methyl-1H-pyrrolo[2,3-b]pyridine-6-carboxamide]?
**A.** Inference [1]: Active; Exploration time mean ± S.E.M, Familiar object ([1]; choice trial 24 hours after T1): 12.67 ± 0.95 s; Exploration time mean ± S.E.M, Novel object ([1]; choice trial 24 hours after T1): 17.98 ± 1.77 s; AUC(0-t) [2, 8]: 796 ± 41 ng·h/mL; clearance [2, 8]: 34 ± 3 mL/min/kg; half-life [2, 8]: 1.3 ± 0.3 h; AUC(0-t) [2, 9]: 875 ± 215 ng·h/mL; Cmax [2, 9]: 373 ± 53 ng/mL; half-life [2, 9]: 1.3 ± 0.2 h; F ([2]; oral (gavage) 3 mg/kg vs intravenous 1 mg/kg): 59 ± 14%; Kp [3]: 0.33 ± 0.02; EC50 [4]: 1.48 µM; Procognitive effect in object recognition task [5]: Procognitive effects were observed

**Q.** For N#CC1(c2ccccn2)CCN(Cc2cc(C(=O)O)c(=O)n3ccccc23)CC1 [PQCA, 1-{[4-cyano-4-(pyridine-2-yl)piperidin-1-yl]methyl}-4-oxo-4H-quinolizine-3-carboxylic acid], which “Efficacy in preclinical models of cognition” value ([6]; Psychopharmacology, 2013, 225(1), 21-30) is on record?
**A.** The value was “efficacious”.

**Q.** And the Gastrointestinal side effects ([6]; at doses equal to or less than a fivefold margin from the minimum effective dose required to improve cognition)?
**A.** Its Gastrointestinal side effects is “no gastrointestinal side effects”.

**Q.** What about the “Selectivity for muscarinic M1 receptor over the other muscarinic receptor subtypes” value [7] of the same molecule?
**A.** The value was “highly selective”.
